Data: patent US9480251B2, “Insecticidal compositions and method for insect control” (FMC Corporation, priority 2010, dated 2016)

What was measured:
Type in all cases: in vivo
[1] = test system: Lasius ant (Lasius niger); assay: Direct spray contact toxicity, Lasius ant; settings: ten insects on asphalt slab, directly sprayed for 2 seconds
Protocol: (§1) Formulations of geraniol, cedar oil and mixtures thereof were evaluated for contact toxicity against the Lasius ant (Lasius niger), lady beetle (Harmonia axyridis), brown stink bug (Halyomorpha halys), green peach aphid (Myzus persicae), house cricket (Acheta domesticus) and […] bug (Pseudococcus longispinus). […] Each test solution was poured into a 16 ounce spray can, a valve was installed and the can was charged with carbon dioxide as the propellant. Direct spraying of the test substance onto insects was performed to determine the efficacy of each test solution as follows: Lasius ant and lady beetle test-In separate tests, ten insects of each species were placed onto an asphalt slab and directly sprayed for 2 seconds with the appropriate test solutions.

[2] = test system: longtail mealy bug (Pseudococcus longispinus); assay: Spray to runoff of infested Euonymus leaves, longtail mealy bug; settings: ten bugs on variegated Euonymus leaves sprayed until runoff, assessed after 24 hours
Protocol: Formulations of geraniol, cedar oil and mixtures thereof were evaluated for contact toxicity against the Lasius ant (Lasius niger), lady beetle (Harmonia axyridis), brown stink bug (Halyomorpha halys), green peach aphid (Myzus persicae), house cricket (Acheta domesticus) and longtail mealy bug (Pseudococcus longispinus). The plant oil test solutions were prepared by dissolving the appropriate amount of the plant oil(s) in deionized water containing 0.5% by weight sodium laureth sulfate, for example 4.4 grams of geraniol was dissolved in 1 liter of deioinized water containing 5 grams of sodium laureth sulfate to prepare a 0.44% test solution of geraniol. Each test solution was poured into a 16 ounce spray can, a valve was installed and the can was charged with carbon dioxide as the propellant. Direct spraying of the test substance onto insects was performed to determine the efficacy of each test solution as follows:
Longtail mealy bug test—In separate tests, ten longtail mealy bugs were established on several leaves of a variegated Euonymus plant, the infested leaves were sprayed with the appropriate test solution until runoff.

[3] = test system: lady beetle (Harmonia axyridis); assay: Direct spray contact toxicity, lady beetle; settings: ten insects on asphalt slab, directly sprayed for 2 seconds
Protocol: as §1

[4] = test system: green peach aphid (Myzus persicae); assay: Spray to runoff of infested bell pepper plant, green peach aphid; settings: infested bell pepper plant sprayed until runoff
Protocol: as §1, with “Green peach aphid” for “Lasius ant and lady beetle”, “a bell pepper plant, infested with green peach aphids, was” for “ten insects of each species were placed onto an asphalt slab and directly”, “sprayed” for “sprayed for 2 seconds”, “solution until runoff.” for “solutions.”

[5] = test system: brown stink bug (Halyomorpha halys); assay: Direct spray contact toxicity, brown stink bug; settings: ten insects on concrete slab, directly sprayed for 2 seconds
Protocol: as §1, with “follows: Brown stink bug” for “follows: Lasius ant”, “and house cricket” for “and lady beetle”, “onto a concrete” for “onto an asphalt”

[6] = test system: house cricket (Acheta domesticus); assay: Direct spray contact toxicity, house cricket; settings: ten insects on concrete slab, directly sprayed for 2 seconds
Protocol: as §1, with “follows: Brown stink bug” for “follows: Lasius ant”, “and house cricket” for “and lady beetle”, “onto a concrete” for “onto an asphalt”

CC(C)=CCC/C(C)=C/CO [0.44% geraniol, trans-3,7-dimethyl-2,6-octadien-1-ol]
Recovery from knockdown [1]: None | Time to 100% Knockdown [1]: 9 s | Time to 100% mortality [1]: 20 s | mortality at 24 hours [2]: 50% mortality at | Recovery from knockdown [3]: None | Time to 100% Knockdown [3]: 20 s | Time to 100% mortality [3]: 60 s | Recovery from knockdown [4]: None | Time to 100% Knockdown [4]: No apparent | Time to 100% mortality [4]: 3 h | Recovery from knockdown [5]: None | Time to 100% Knockdown [5]: 20 s | Time to 100% mortality [5]: 90 s | Recovery from knockdown [6]: None | Time to 100% Knockdown [6]: 60 s | Time to 100% mortality [6]: 3 h
